For twelve molecules, EC50 and IC50 results are on record in US20250129069A1, “TRIAZOLO WRN INHIBITORS” (Nimbus Wadjet, Inc., priority 2023, published 2025).

Read-outs that look alike come from different tables or passages of the source.

The test system of assay [1] is p21 induction in HCT 116 cells. The experiment in a line: p21 induction in cells (In-Cell Western, p21/GAPDH ratio). The format is cell-based. To be noted: 24 h compound incubation, read-out: p21_EC50. The gist of the method: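 EC50 values come from nonlinear fits of percent activation, defined by the 800/700 nm p21-to-GAPDH ratio scaled between DMSO (low) and internal WRN inhibitor (high) controls. In-Cell Western read after 24 h compound exposure of HCT 116 cells at 37° C. Duplicate 11-point series, 2-fold steps, usually starting at 10 μM.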

The target of assay [2] is human Werner helicase (WRN, amino acids 517-1235 with L1074F point mutation) (Homo sapiens (Human), UniProt Q14191, L1074F). The experiment in a line: WRN (BV08) ADP-Glo assay. It is filed as biochemical. To be noted: human WRN (aa 517-1235, L1074F), read-out: ADP-Glo_hWRN_IC50. In outline:
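ADP-Glo luminescence read after 60 min, 25 °C reaction of 0.15 nM WRN (517-1235, L1074F, Sf9-expressed, tag removed) with 0.1 nM DNA duplex and 5 μM ATP, following 15 min compound preincubation; 20 mM Bicine pH 7.5, 1% DMSO. IC50 from 3- or 4-parameter fit of % inhibition.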
Background: ADP-Glo first removes unused ATP, then detects ADP through luciferase.

human Werner helicase (WRN, amino acids 517-1235 with L1074F point mutation), sequence (Q14191 other isoform, or with tags, fused parts or gaps L1074F (already in the parent)): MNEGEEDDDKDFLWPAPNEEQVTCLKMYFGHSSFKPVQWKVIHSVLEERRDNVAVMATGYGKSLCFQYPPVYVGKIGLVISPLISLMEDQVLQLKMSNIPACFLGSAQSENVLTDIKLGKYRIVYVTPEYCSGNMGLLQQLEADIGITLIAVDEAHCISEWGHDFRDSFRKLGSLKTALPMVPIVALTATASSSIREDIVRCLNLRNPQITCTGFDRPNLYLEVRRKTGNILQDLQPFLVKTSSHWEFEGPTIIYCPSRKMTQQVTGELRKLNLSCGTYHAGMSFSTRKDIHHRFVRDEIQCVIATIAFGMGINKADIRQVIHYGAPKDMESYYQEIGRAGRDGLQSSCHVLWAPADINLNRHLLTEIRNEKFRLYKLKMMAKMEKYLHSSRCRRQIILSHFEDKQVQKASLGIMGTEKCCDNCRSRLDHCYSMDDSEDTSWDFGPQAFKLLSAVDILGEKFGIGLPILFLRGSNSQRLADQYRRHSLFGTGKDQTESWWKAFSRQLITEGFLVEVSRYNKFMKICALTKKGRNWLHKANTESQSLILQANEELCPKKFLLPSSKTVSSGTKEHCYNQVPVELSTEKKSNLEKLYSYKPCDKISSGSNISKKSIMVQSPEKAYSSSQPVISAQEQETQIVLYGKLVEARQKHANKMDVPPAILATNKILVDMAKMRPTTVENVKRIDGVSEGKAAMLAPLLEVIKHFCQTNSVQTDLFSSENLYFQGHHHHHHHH

As for `CCc1c(N2CCN(C(=O)c3c(OC)ncc(C4CCOC4)c3O)CC2)c(=O)c2nn(-c3ccnc(OC)c3)nc2n1CC(=O)NC12CC(C(C)C)(C1)C2` (stereo not drawn) [Compound I-75, 2-(5-ethyl-6-{4-[4-hydroxy-2-methoxy-5-(oxolan-3-yl)pyridine-3-carbonyl]piperazin-1-yl}-2-(2-methoxypyridin-4-yl)-7-oxo-2H,4H,7H-[1,2,3]triazolo[4,5-b]pyridin-4-yl)-N-[3-(propan-2-yl)bicyclo[1.1.1]pentan-1-yl]acetamide], the EC50 in assay [1] (Homo sapiens) lay within 500 to 2000 nM. In addition, in assay [2], the IC50 was 5 to 50 nM.

As to `CCc1c(C2=C(C)CN(C(=O)c3ncnc(C)c3O)CC2)c(=O)c2nn(-c3ccnc(OC)c3)nc2n1CC(=O)NC12CC(C(C)C)(C1)C2` [Compound I-78, 2-{5-ethyl-6-[1-(5-hydroxy-6-methylpyrimidine-4-carbonyl)-5-methyl-1,2,3,6-tetrahydropyridin-4-yl]-2-(2-methoxypyridin-4-yl)-7-oxo-2H,4H,7H-[1,2,3]triazolo[4,5-b]pyridin-4-yl}-N-[3-(propan-2-yl)bicyclo[1.1.1]pentan-1-yl]acetamide], the EC50 in assay [1] (Homo sapiens) fell in the range of 2000 to 5000 nM. Further, in assay [2], the IC50 lay in the range of 5 to 50 nM.

In the case of `CCc1c(C2=CCN(C(=O)c3ncnc(C)c3O)CC2)c(=O)c2nn(-c3ccnc(OC)c3)nc2n1CC(=O)NC12CC(C(C)C)(C1)C2` [Compound I-79, 2-{5-ethyl-6-[1-(5-hydroxy-6-methylpyrimidine-4-carbonyl)-1,2,3,6-tetrahydropyridin-4-yl]-2-(2-methoxypyridin-4-yl)-7-oxo-2H,4H,7H-[1,2,3]triazolo[4,5-b]pyridin-4-yl}-N-[3-(propan-2-yl)bicyclo[1.1.1]pentan-1-yl]acetamide], the EC50 in assay [1] (Homo sapiens) lay within 500 to 2000 nM. Besides, the IC50 in assay [2] lay within 5 to 50 nM.

`CCc1c(N2CCN(C(=O)c3ncnc(C)c3O)[C@H]3CC[C@@H]32)c(=O)c2nn(-c3ccnc(OC)c3)nc2n1CC(=O)Nc1ccc(C(F)F)cc1Cl` [Compound I-82, N-[2-chloro-4-(difluoromethyl)phenyl]-2-{5-ethyl-6-[(1S,6S)-5-(5-hydroxy-6-methylpyrimidine-4-carbonyl)-2,5-diazabicyclo[4.2.0]octan-2-yl]-2-(2-methoxypyridin-4-yl)-7-oxo-2H,4H,7H-[1,2,3]triazolo[4,5-b]pyridin-4-yl}acetamide]: the EC50 in assay [1] (Homo sapiens) was ≤ 500 nM. Also, the IC50 in assay [2] was ≤ 5 nM.

For the molecule `CCc1c(N2CCN(C(=O)c3ncnc(C)c3O)[C@H]3CC[C@@H]32)c(=O)c2nn(-c3ccnc(OC)c3)nc2n1CC(=O)Nc1ccc(C(F)F)cc1F` [Compound I-83, N-[4-(difluoromethyl)-2-fluorophenyl]-2-{5-ethyl-6-[(1S,6S)-5-(5-hydroxy-6-methylpyrimidine-4-carbonyl)-2,5-diazabicyclo[4.2.0]octan-2-yl]-2-(2-methoxypyridin-4-yl)-7-oxo-2H,4H,7H-[1,2,3]triazolo[4,5-b]pyridin-4-yl}acetamide], the EC50 in assay [1] (Homo sapiens) is ≤ 500 nM. Moreover, the IC50 in assay [2] is ≤ 5 nM.

For `CCc1c(N2CCN(C(=O)c3ncnc(C)c3O)[C@H]3CC[C@@H]32)c(=O)c2nn(-c3ccnc(C)c3)nc2n1CC(=O)NC12CC(C3CC3)(C1)C2` [Compound I-84, N-{3-cyclopropylbicyclo[1.1.1]pentan-1-yl}-2-{5-ethyl-6-[(1S,6S)-5-(5-hydroxy-6-methylpyrimidine-4-carbonyl)-2,5-diazabicyclo[4.2.0]octan-2-yl]-2-(2-methylpyridin-4-yl)-7-oxo-2H,4H,7H-[1,2,3]triazolo[4,5-b]pyridin-4-yl}acetamide], in assay [1], the EC50 is ≤ 500 nM. For the same molecule, in assay [2], the IC50 lay within 5 to 50 nM.

In the case of `CCc1c(N2CCN(C(=O)c3ncnc(C)c3O)[C@H]3CC[C@@H]32)c(=O)c2nn(-c3ccnc(OC)c3)nc2n1CC(=O)NC1(C)CC2(CCC2)C1` [Compound I-87, 2-{5-ethyl-6-[(1S,6S)-5-(5-hydroxy-6-methylpyrimidine-4-carbonyl)-2,5-diazabicyclo[4.2.0]octan-2-yl]-2-(2-methoxypyridin-4-yl)-7-oxo-2H,4H,7H-[1,2,3]triazolo[4,5-b]pyridin-4-yl}-N-{2-methylspiro[3.3]heptan-2-yl}acetamide], in assay [1] (Homo sapiens), the EC50 was ≤ 500 nM. Also, the IC50 in assay [2] lay within 5 to 50 nM.

Consider `CCc1c(N2CCN(C(=O)c3ncnc(C)c3O)[C@H]3CC[C@@H]32)c(=O)c2nn(-c3ccnc(OC)c3)nc2n1CC(=O)NC1CC2(CC(C)C2)C1` (stereo partly drawn) [Compound I-88, 2-{5-ethyl-6-[(1S,6S)-5-(5-hydroxy-6-methylpyrimidine-4-carbonyl)-2,5-diazabicyclo[4.2.0]octan-2-yl]-2-(2-methoxypyridin-4-yl)-7-oxo-2H,4H,7H-[1,2,3]triazolo[4,5-b]pyridin-4-yl}-N-{6-methylspiro[3.3]heptan-2-yl}acetamide], for which, in assay [1] (Homo sapiens), the EC50 fell in the range of 500 to 2000 nM. In assay [2], the IC50 fell in the range of 5 to 50 nM.

Consider `CCc1c(N2CCN(C(=O)c3ncnc(C)c3O)[C@H]3CC[C@@H]32)c(=O)c2nn(-c3ccnc(OC)c3)nc2n1CC(=O)NC1CC2(CCCC2)C1` [Compound I-89, 2-{5-ethyl-6-[(1S,6S)-5-(5-hydroxy-6-methylpyrimidine-4-carbonyl)-2,5-diazabicyclo[4.2.0]octan-2-yl]-2-(2-methoxypyridin-4-yl)-7-oxo-2H,4H,7H-[1,2,3]triazolo[4,5-b]pyridin-4-yl}-N-{spiro[3.4]octan-2-yl}acetamide], for which, in assay [1] (Homo sapiens), the EC50 was ≤ 500 nM. Moreover, the IC50 in assay [2] was 5 to 50 nM.

Turning to `CCc1c(N2CCN(C(=O)c3ncnc(C)c3O)[C@H]3CC[C@@H]32)c(=O)c2nn(-c3ccccn3)nc2n1CC(=O)NC12CC(C(C)C)(C1)C2` [Compound I-90, 2-{5-ethyl-6-[(1S,6S)-5-(5-hydroxy-6-methylpyrimidine-4-carbonyl)-2,5-diazabicyclo[4.2.0]octan-2-yl]-7-oxo-2-(pyridin-2-yl)-2H,4H,7H-[1,2,3]triazolo[4,5-b]pyridin-4-yl}-N-[3-(propan-2-yl)bicyclo[1.1.1]pentan-1-yl]acetamide], the EC50 in assay [1] is ≤ 500 nM. In addition, the IC50 in assay [2] fell in the range of 5 to 50 nM.

In the case of `CCc1c(N2CCN(C(=O)c3c(OC)ncc(C)c3O)[C@H]3CC[C@@H]32)c(=O)c2nn(C3=CCOCC3)nc2n1CC(=O)NC12CC(C(C)C)(C1)C2` [Compound I-92, 2-[2-(3,6-dihydro-2H-pyran-4-yl)-5-ethyl-6-[(1S,6S)-5-(4-hydroxy-2-methoxy-5-methylpyridine-3-carbonyl)-2,5-diazabicyclo[4.2.0]octan-2-yl]-7-oxo-2H,4H,7H-[1,2,3]triazolo[4,5-b]pyridin-4-yl]-N-[3-(propan-2-yl)bicyclo[1.1.1]pentan-1-yl]acetamide], the EC50 in assay [1] was ≤ 500 nM. Further, the IC50 in assay [2] is 5 to 50 nM.

With `CCc1c(N2CCN(C(=O)c3c(OC)ncc(C)c3O)[C@H]3CC[C@@H]32)c(=O)c2nn(-c3ccnc(OC)c3)nc2n1CC(=O)NC1CC2(CCC2)C1` [Compound I-93, 2-{5-ethyl-6-[(1S,6S)-5-(4-hydroxy-2-methoxy-5-methylpyridine-3-carbonyl)-2,5-diazabicyclo[4.2.0]octan-2-yl]-2-(2-methoxypyridin-4-yl)-7-oxo-2H,4H,7H-[1,2,3]triazolo[4,5-b]pyridin-4-yl}-N-{spiro[3.3]heptan-2-yl}acetamide], the EC50 in assay [1] (Homo sapiens) was ≤ 500 nM. For the same molecule, the IC50 in assay [2] fell in the range of 5 to 50 nM.
